Results as given in ChEMBL document CHEMBL1201862, “PubChem BioAssay data set” (2004).
Calls of active or inactive are those of the source.

Columns and labels:
[1] = target: T1, Long-chain-fatty-acid--AMP ligase FadD28 (Mycobacterium tuberculosis, UniProt P9WQ59); experiment: Fluorescence polarization aasay to screen for inhibitors that compete for the binding of FadD28 to a bisubstrate Measured in Biochemical System Using Plate Reader - 2147-01_Inhibitor_Dose_CherryPick_Activity.; assay type: functional, Mycobacterium tuberculosis H37Rv
T1 sequence (P9WQ59 whole entry): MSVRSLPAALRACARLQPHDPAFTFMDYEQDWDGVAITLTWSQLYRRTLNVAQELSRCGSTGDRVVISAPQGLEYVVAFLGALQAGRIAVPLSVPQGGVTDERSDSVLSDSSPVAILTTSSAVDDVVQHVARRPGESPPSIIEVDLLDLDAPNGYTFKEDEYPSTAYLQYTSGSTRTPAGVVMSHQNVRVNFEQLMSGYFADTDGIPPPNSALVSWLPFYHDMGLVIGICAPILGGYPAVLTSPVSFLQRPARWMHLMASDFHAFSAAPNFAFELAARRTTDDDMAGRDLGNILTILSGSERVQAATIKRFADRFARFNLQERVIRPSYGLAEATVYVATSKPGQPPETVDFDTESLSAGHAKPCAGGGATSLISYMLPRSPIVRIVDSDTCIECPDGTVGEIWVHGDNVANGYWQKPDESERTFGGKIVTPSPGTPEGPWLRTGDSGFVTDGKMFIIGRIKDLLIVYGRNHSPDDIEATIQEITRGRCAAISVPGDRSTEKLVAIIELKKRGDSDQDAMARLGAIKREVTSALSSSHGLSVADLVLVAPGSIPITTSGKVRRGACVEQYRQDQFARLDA

[2] = target: T2, DNA repair and recombination protein RAD54-like (Homo sapiens, UniProt Q92698); experiment: RAD54 Holliday junction migration blockers – biochemical, fluorescence, cherry-picked samples, dose series, confirmation (AID 651657); assay type: functional
T2 sequence (Q92698 whole entry): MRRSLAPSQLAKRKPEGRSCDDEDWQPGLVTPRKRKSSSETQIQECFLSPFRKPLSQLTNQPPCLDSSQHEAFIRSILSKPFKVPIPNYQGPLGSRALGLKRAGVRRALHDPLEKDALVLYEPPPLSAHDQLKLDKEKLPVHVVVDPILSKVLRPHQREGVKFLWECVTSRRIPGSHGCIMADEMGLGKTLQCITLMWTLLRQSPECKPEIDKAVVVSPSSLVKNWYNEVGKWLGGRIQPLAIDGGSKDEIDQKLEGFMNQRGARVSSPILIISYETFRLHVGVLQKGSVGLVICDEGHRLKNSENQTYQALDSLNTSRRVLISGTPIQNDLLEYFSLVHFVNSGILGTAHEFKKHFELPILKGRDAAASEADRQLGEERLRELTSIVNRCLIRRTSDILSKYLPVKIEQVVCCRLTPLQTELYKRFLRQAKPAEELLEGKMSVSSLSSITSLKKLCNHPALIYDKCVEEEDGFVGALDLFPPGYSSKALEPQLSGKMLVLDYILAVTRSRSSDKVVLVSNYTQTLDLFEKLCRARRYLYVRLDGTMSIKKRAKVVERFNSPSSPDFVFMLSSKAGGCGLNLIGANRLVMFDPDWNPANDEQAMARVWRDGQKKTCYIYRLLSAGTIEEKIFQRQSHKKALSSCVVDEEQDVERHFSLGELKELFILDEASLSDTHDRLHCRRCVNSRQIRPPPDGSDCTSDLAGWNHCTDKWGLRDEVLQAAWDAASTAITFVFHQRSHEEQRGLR

[3] = target: T3, DNA repair protein RAD52 homolog (Homo sapiens, UniProt P43351); assay type: functional, biochemical
T3 sequence (P43351 whole entry): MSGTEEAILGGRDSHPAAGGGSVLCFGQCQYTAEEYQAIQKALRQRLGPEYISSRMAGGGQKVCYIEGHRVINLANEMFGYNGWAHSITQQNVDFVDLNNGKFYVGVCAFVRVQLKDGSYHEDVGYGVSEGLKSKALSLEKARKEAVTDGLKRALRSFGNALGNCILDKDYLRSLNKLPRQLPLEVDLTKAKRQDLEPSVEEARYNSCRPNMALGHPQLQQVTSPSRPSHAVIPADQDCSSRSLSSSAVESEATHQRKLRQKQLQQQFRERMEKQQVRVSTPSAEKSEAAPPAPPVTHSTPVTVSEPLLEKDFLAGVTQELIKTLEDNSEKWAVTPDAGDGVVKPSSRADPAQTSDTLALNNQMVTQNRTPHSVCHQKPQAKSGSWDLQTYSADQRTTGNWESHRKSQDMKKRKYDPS

[4] = intracellular Trypanosoma cruzi inhibitors in host cells – cell-based, plate reader, cherry-pick samples, set 3, dose response (AID 651818); assay type: functional;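 note: compounds incubated with infected cells for about four days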
[5] = general mammalian cell viability loss – inhibitor set, cherry-pick, set 2, cytotoxicity control for miR-122 modulator project, dose response (AID 720697); assay type: functional, cell-based
[6] = general mammalian cell viability loss – activator set, cherry-pick, cytotoxicity control for miR-122 modulator project, dose response (AID 720690); assay type: functional, cell-based;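 note: HEK293T human cells scored for general mammalian cytotoxicity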
Paired box protein Pax-8 = Paired box protein Pax-8 (Homo sapiens, UniProt Q06710); experiment: PAX8 transcriptional activity inhibition in RMG-I – RMG-I cells, luciferase, cherry-pick, dose response (AID 687027); assay type: functional, cell-based;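 note: luciferase reporter driven by Pax8 target thyroperoxidase promoter measured by SteadyGlo luminescence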
[7] = OVCAR-3 cell viability loss – plate reader, dry powder samples, PAX8 inhibitor project, dose response (AID 743044); assay type: functional, cell-based
[8] = OVCAR8 cell viability loss – plate reader, dry powder samples, PAX8 project, dose response (AID 743197); assay type: functional, cell-based; settings: OVCAR-8
[9] = P. falciparum Dd2 growth inhibitors, dose response, SYBR Green, cherry-picked samples (AID 1159567); assay type: functional, cell-based
[10] = toxicity to human hepatoma HepG2 cells – cell-based, cherry-picked samples, cytotoxicity control, dose response (AID 1159577); assay type: functional
[11] = growth inhibition of yeast DHODH-expressing 3D7 parasites – SYBR Green, dry powder samples, dose response (AID 1159570); assay type: functional, cell-based;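 note: parasite growth measured after 72 hours of compound exposure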
[12] = Dd2 malaria parasite growth inhibition potency – SYBR Green, dry powder samples, dose response (AID 1159566); assay type: functional, cell-based;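 note: potency for growth inhibition with lower SYBR green DNA signal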
[13] = growth inhibition of PfATP4-mutant resistant parasites – NITD609-resistant line, SYBR Green, dry powder, dose response (AID 1159571); assay type: functional, cell-based;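 note: parasites synchronized at ring stage by sorbitol before testing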
[14] = luciferase reporter signal suppression in cells – H4 neuroglioma cells, luminescence, dose response (AID 1990); assay type: functional, cell-based
[15] = Luminescence Cell-Based Dose Response HTS to Identify Inhibitors of 5'UTR Stem-Loop Driven Prion Protein mRNA Translation in H4 Neuroglioblastoma Cells. [Related pubchem assays: 1827 (Project Summary), 1813 (Primary HTS)]; assay type: functional

Paired box protein Pax-8, sequence (Q06710 whole entry): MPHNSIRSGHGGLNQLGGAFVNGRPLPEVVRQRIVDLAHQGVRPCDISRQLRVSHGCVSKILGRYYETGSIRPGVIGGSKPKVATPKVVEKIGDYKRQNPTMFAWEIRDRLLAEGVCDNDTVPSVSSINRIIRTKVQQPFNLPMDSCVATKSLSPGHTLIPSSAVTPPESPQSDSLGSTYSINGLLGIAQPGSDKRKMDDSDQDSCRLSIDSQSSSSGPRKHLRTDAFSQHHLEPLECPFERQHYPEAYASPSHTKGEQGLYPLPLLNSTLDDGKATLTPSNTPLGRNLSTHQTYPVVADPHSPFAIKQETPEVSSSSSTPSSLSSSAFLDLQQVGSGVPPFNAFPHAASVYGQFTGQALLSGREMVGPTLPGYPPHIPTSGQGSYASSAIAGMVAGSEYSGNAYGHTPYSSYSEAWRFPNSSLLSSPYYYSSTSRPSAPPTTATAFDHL

Question: For NS(=O)(=O)c1ccc(CNC(=O)C(Cc2ccccc2)NS(=O)(=O)c2ccccc2F)cc1 (stereo not drawn), which AC50 [1] is on record?
Answer: 39.3 µM (active)

Question: Which AC50 [2] does the source give for COc1ccc(Cl)c2sc(N(CCN(C)C)C(=O)C3=COCCO3)nc12 here?
Answer: 38 µM (active)

Question: With COc1ccc(-c2cc(NC=O)c3ncc(-c4cccc(C(=O)NCCN(C)C)c4)n3c2)cc1 as the molecule, how does the AC50 [2] read?
Answer: 9.93 µM (active)

Question: What about the AC50 [3] of the same molecule?
Answer: 2.81 µM (active)

Question: What does the source list for C[C@@H]1CN([C@@H](C)CO)C(=O)c2cc(NC(=O)Nc3ccc(C(F)(F)F)cc3)ccc2O[C@@H]1CN(C)CC1CCCCC1?
Answer: AC50 [4]: 5.59 µM (active); AC50 [5]: 4.35 µM (active); AC50 [6]: 19.1 µM (active)

Question: For Cc1noc(C)c1S(=O)(=O)Nc1ccc2c(c1)C(=O)N([C@H](C)CO)C[C@@H](C)[C@H](CN(C)C(=O)Nc1ccc(C(F)(F)F)cc1)OCCCC[C@@H](C)O2, which AC50 (Paired box protein Pax-8) is on record?
Answer: 7.41 µM (active)

Question: And the AC50 [7]?
Answer: 26.7 µM (active)

Question: And the AC50 [8]?
Answer: 38.2 µM (active)

Question: For C[C@@H]1CN([C@@H](C)CO)C(=O)Cc2cc(NC(=O)Nc3ccc(C(F)(F)F)cc3)ccc2O[C@H]1CN(C)CC1CCCCC1, which AC50 [9] is on record?
Answer: 1.35 µM (active)

Question: What about the AC50 [10] of the same molecule?
Answer: 10.4 µM (active)

Question: With C[C@H](CO)N1C[C@H](C)[C@@H](CN(C)Cc2ccc3c(c2)OCO3)Oc2ccc(NC(=O)Nc3ccc(C(F)(F)F)cc3)cc2CC1=O as the molecule, how does the AC50 [11] read?
Answer: 0.954 µM (active)

Question: And the AC50 [9]?
Answer: 1.14 µM (active)

Question: And the AC50 [12]?
Answer: 0.94 µM (active)

Question: What about the AC50 [10] of the same molecule?
Answer: > 39 µM (inactive)

Question: What about the AC50 [13] of the same molecule?
Answer: 0.852 µM (active)

Question: What does the source list for COc1ccc2c3c([nH]c2c1)[C@H](CO)N(Cc1ccncc1)CC31CCN(Cc2ccc(-c3ccccn3)cc2)CC1?
Answer: AC50 [9]: 0.973 µM (active); AC50 [10]: 17.6 µM (active)

Question: What does the source list for CC1(C)Oc2cc3oc(-c4cc(O)cc(O)c4)cc3cc2CC1O (stereo not drawn) [(+/-)-MORACIN P]?
Answer: EC50 [14]: 4.04 µM (inconclusive); EC50 [15]: 11.1 µM (active); AC50 [1]: 65.8 µM (active)

Question: With CCCCCC1C(=O)N2C=C(c3ccccc3)c3ccccc3N2C1=O (stereo not drawn) [CINTAZONE] as the molecule, how does the AC50 [1] read?
Answer: 67.3 µM (active)
